The assay deals with MV-4-11 cells. The assay can be described thus: Gene expression microarray analysis (Affymetrix PrimeView) and GSEA. On the set-up: RFU PODN (11730768_x_at) / Fold change /veh PODN (11730768_x_at) / RFU LINC00158 (11744669_a_at) / Fold change /veh LINC00158 (11744669_a_at) / RFU DUSP10 (11751237_a_at) / Fold change /veh DUSP10 (11751237_a_at) / RFU ID3 (11757404_x_at) / Fold change /veh ID3 (11757404_x_at) / RFU PLEKHG5 (11737974_s_at) / Fold change /veh PLEKHG5 (11737974_s_at) / RFU LRRC4B (11730491_at) / Fold change /veh LRRC4B (11730491_at) / RFU GIMAP4 (11747438_a_at) / Fold change /veh GIMAP4 (11747438_a_at) / RFU KRT8 (11758183_x_at) / Fold change /veh KRT8 (11758183_x_at) / RFU CNN1 (11734310_a_at) / Fold change /veh CNN1 (11734310_a_at) / RFU VPS37D (11726825_at) / Fold change /veh VPS37D (11726825_at) / RFU C10orf10 (11716522_x_at) / Fold change /veh C10orf10 (11716522_x_at) / RFU KIR2DL2 /// KIR2DL4 /// KIR2DL5A /// KIR2DL5B /// KIR2DS1 /// KIR2DS2 /// KIR2DS3 /// KIR2DS4 /// KIR3DL3 /// KIR3DL3 /// KIR3DS1 (11738374_at) / Fold change /veh KIR2DL2 /// KIR2DL4 /// KIR2DL5A /// KIR2DL5B /// KIR2DS1 /// KIR2DS2 /// KIR2DS3 /// KIR2DS4 /// KIR3DL3 /// KIR3DL3 /// KIR3DS1 (11738374_at) / RFU C1QL1 (11718748_at) / Fold change /veh C1QL1 (11718748_at) / RFU TMPRSS4 (11747572_a_at) / Fold change /veh TMPRSS4 (11747572_a_at) / RFU HAMP (11756126_x_at) / Fold change /veh HAMP (11756126_x_at) / RFU RNFT2 (11725882_a_at) / Fold change /veh RNFT2 (11725882_a_at) / RFU NR4A2 (11747474_a_at) / Fold change /veh NR4A2 (11747474_a_at) / RFU ABCC12 (11746883_a_at) / Fold change /veh ABCC12 (11746883_a_at) / RFU TMEM136 (11760407_x_at) / Fold change /veh TMEM136 (11760407_x_at) / RFU CLDN22 /// WWC2 (11732394_at) / Fold change /veh CLDN22 /// WWC2 (11732394_at) / RFU HLA-DPB1 (11760878_x_at) / Fold change /veh HLA-DPB1 (11760878_x_at) / RFU SPINT1 (11716480_a_at) / Fold change /veh SPINT1 (11716480_a_at) / RFU GAP43 (11754022_s_at) / Fold change /veh GAP43 (11754022_s_at) / RFU A4GNT (11735810_at) / Fold change /veh A4GNT (11735810_at) / RFU PRB3 (11715151_x_at) / Fold change /veh PRB3 (11715151_x_at) / RFU TUBB4B (11761932_at) / Fold change /veh TUBB4B (11761932_at) / RFU CAPN14 (11732068_a_at) / Fold change /veh CAPN14 (11732068_a_at) / RFU TMCC2 (11721928_a_at) / Fold change /veh TMCC2 (11721928_a_at) / RFU IRGQ (11745062_a_at) / Fold change /veh IRGQ (11745062_a_at) / RFU FAM174B (11720279_a_at) / Fold change /veh FAM174B (11720279_a_at) / RFU TMPRSS4 (11748680_a_at) / Fold change /veh TMPRSS4 (11748680_a_at) / RFU FAM212B (11763350_a_at) / Fold change /veh FAM212B (11763350_a_at) / RFU PLEKHG5 (11743358_a_at) / Fold change /veh PLEKHG5 (11743358_a_at) / RFU ZSCAN30 (11745921_a_at) / Fold change /veh ZSCAN30 (11745921_a_at) / RFU CMKLR1 (11741424_a_at) / Fold change /veh CMKLR1 (11741424_a_at) / RFU LOC101060620 /// MAPK8IP1 (11723275_at) / Fold change /veh LOC101060620 /// MAPK8IP1 (11723275_at) / RFU SPTSSB (11747773_x_at) / Fold change /veh SPTSSB (11747773_x_at) / RFU PRSS12 (11739890_at) / Fold change /veh PRSS12 (11739890_at) / RFU BIN1 (11741810_x_at) / Fold change /veh BIN1 (11741810_x_at) / RFU WNT11 (11732464_a_at) / Fold change /veh WNT11 (11732464_a_at) / RFU C10orf10 (11716521_a_at) / Fold change /veh C10orf10 (11716521_a_at) / RFU C5orf56 (11738089_at) / Fold change /veh C5orf56 (11738089_at) / RFU CYB561 (11721691_x_at) / Fold change /veh CYB561 (11721691_x_at) / RFU ANKRD19P (11752326_a_at) / Fold change /veh ANKRD19P (11752326_a_at) / RFU OR2T12 /// OR2T33 /// OR2T8 (11738714_s_at) / Fold change /veh OR2T12 /// OR2T33 /// OR2T8 (11738714_s_at) / RFU VCAN (11748164_a_at) / Fold change /veh VCAN (11748164_a_at) / RFU JSRP1 (11732532_at) / Fold change /veh JSRP1 (11732532_at) / RFU KRTAP10-11 (11738290_x_at) / Fold change /veh KRTAP10-11 (11738290_x_at) / RFU MYO3A (11730013_a_at) / Fold change /veh MYO3A (11730013_a_at) / RFU EBF3 (11725865_a_at) / Fold change /veh EBF3 (11725865_a_at) / RFU CAMK2N1 (11719241_x_at) / Fold change /veh CAMK2N1 (11719241_x_at) / RFU C5orf56 (11738088_a_at) / Fold change /veh C5orf56 (11738088_a_at) / RFU OLFML3 (11715873_a_at) / Fold change /veh OLFML3 (11715873_a_at) / RFU LOC100653217 /// NTM (11731650_a_at) / Fold change /veh LOC100653217 /// NTM (11731650_a_at) / RFU MAPK11 (11762145_a_at) / Fold change /veh MAPK11 (11762145_a_at) / RFU FIZ1 (11724087_x_at) / Fold change /veh FIZ1 (11724087_x_at) / RFU OASL (11726364_x_at) / Fold change /veh OASL (11726364_x_at) / RFU SOX15 (11748057_x_at) / Fold change /veh SOX15 (11748057_x_at) / RFU CD79A (11719716_a_at) / Fold change /veh CD79A (11719716_a_at) / RFU HIST1H1D (11736915_at) / Fold change /veh HIST1H1D (11736915_at) / RFU CASKIN2 (11723855_a_at) / Fold change /veh CASKIN2 (11723855_a_at) / RFU LOC730098 (11760151_x_at) / Fold change /veh LOC730098 (11760151_x_at) / RFU OR4N2 (11742367_at) / Fold change /veh OR4N2 (11742367_at) / RFU PRRT2 (11749266_a_at) / Fold change /veh PRRT2 (11749266_a_at) / RFU SNX32 (11753110_a_at) / Fold change /veh SNX32 (11753110_a_at) / RFU CDHR5 (11726645_a_at) / Fold change /veh CDHR5 (11726645_a_at) / RFU RCAN1 (11760418_a_at) / Fold change /veh RCAN1 (11760418_a_at) / RFU FAM167A (11723789_a_at) / Fold change /veh FAM167A (11723789_a_at) / RFU FAM26E (11764081_at) / Fold change /veh FAM26E (11764081_at) / RFU ISYNA1 (11749810_s_at) / Fold change /veh ISYNA1 (11749810_s_at) / RFU ACY1 (11761880_at) / Fold change /veh ACY1 (11761880_at) / RFU 11764098_at / Fold change /veh 11764098_at / RFU SAMD14 (11745864_x_at) / Fold change /veh SAMD14 (11745864_x_at) / RFU NPB (11741838_a_at) / Fold change /veh NPB (11741838_a_at) / RFU TMPRSS6 (11731388_a_at) / Fold change /veh TMPRSS6 (11731388_a_at) / RFU KRTAP10-2 (11738614_at) / Fold change /veh KRTAP10-2 (11738614_at) / RFU ARHGAP8 /// PRR5-ARHGAP8 (11727945_x_at) / Fold change /veh ARHGAP8 /// PRR5-ARHGAP8 (11727945_x_at) / RFU KRTAP5-7 /// NADSYN1 (11734609_at) / Fold change /veh KRTAP5-7 /// NADSYN1 (11734609_at) / RFU RASL12 (11751679_a_at) / Fold change /veh RASL12 (11751679_a_at) / RFU CDKN2B (11736163_a_at) / Fold change /veh CDKN2B (11736163_a_at) / RFU PRF1 (11729649_at) / Fold change /veh PRF1 (11729649_at) / RFU, ZNF638 /// ZNF638-IT1 / Fold change vs veh, ZNF638 /// ZNF638-IT1 / RFU, PANK3 / Fold change vs veh, PANK3 / RFU, SH3YL1 / Fold change vs veh, SH3YL1 / RFU, ZEB2 / Fold change vs veh, ZEB2 / RFU, NRIP1 / Fold change vs veh, NRIP1 / RFU, PTTG1IP / Fold change vs veh, PTTG1IP / RFU, CAPN2 / Fold change vs veh, CAPN2 / RFU, MED14 / Fold change vs veh, MED14 / RFU, SNORA58 / Fold change vs veh, SNORA58 / RFU, C1orf63 / Fold change vs veh, C1orf63 / RFU, LRRFIP1 / Fold change vs veh, LRRFIP1 / RFU, NDUFAF7 / Fold change vs veh, NDUFAF7 / RFU, SLC12A2 / Fold change vs veh, SLC12A2 / RFU, IBTK / Fold change vs veh, IBTK / RFU, ESF1 / Fold change vs veh, ESF1 / Fold change vs veh, TMEM50B / RFU, TAOK1 / Fold change vs veh, TAOK1 / RFU, ACBD3 / Fold change vs veh, ACBD3 / RFU, TMA16 / Fold change vs veh, TMA16 / RFU, RWDD3 / Fold change vs veh, RWDD3 / RFU, BCAT1 / Fold change vs veh, BCAT1 / RFU, EDEM3 / Fold change vs veh, EDEM3 / RFU, TMEM33 / Fold change vs veh, TMEM33 / RFU, WDR75 / Fold change vs veh, WDR75 / RFU, AHCTF1 / Fold change vs veh, AHCTF1 / RFU, TFRC / Fold change vs veh, TFRC / RFU, ZDHHC17 / Fold change vs veh, ZDHHC17 / RFU, NOM1 / Fold change vs veh, NOM1 / RFU, ARL8B / Fold change vs veh, ARL8B / RFU, ZBTB11 / Fold change vs veh, ZBTB11 / RFU, TAMM41 / Fold change vs veh, TAMM41 / RFU, KIAA1704 /// LOC100996395 / Fold change vs veh, KIAA1704 /// LOC100996395 / RFU, ING1 / Fold change vs veh, ING1 / RFU, TRMT61B / Fold change vs veh, TRMT61B / RFU, FUBP3 / Fold change vs veh, FUBP3 / RFU, TP53 / Fold change vs veh, TP53 / RFU, TNKS2 / Fold change vs veh, TNKS2 / RFU, ZFP14 / Fold change vs veh, ZFP14 / RFU, ACTR2 / Fold change vs veh, ACTR2 / RFU, PPP3R1 / Fold change vs veh, PPP3R1 / RFU, PIK3R1 / Fold change vs veh, PIK3R1 / RFU, HNRNPA1 / Fold change vs veh, HNRNPA1 / RFU, RNF170 / Fold change vs veh, RNF170 / RFU, ZNF28 / Fold change vs veh, ZNF28 / RFU, RNGTT / Fold change vs veh, RNGTT / RFU, OGT / Fold change vs veh, OGT / RFU, BRD1 / Fold change vs veh, BRD1 / RFU, MARS / Fold change vs veh, MARS / RFU, ZNF655 / Fold change vs veh, ZNF655 / RFU, FAHD1 / Fold change vs veh, FAHD1 / RFU, BDP1 / Fold change vs veh, BDP1 / RFU, LRRCC1 / Fold change vs veh, LRRCC1 / RFU, ARID1A / Fold change vs veh, ARID1A / RFU, ZNF146 / Fold change vs veh, ZNF146 / RFU, ZNF330 / Fold change vs veh, ZNF330 / RFU, GPN3 / Fold change vs veh, GPN3 / RFU, C9orf123 / Fold change vs veh, C9orf123 / RFU, N4BP2L2 / Fold change vs veh, N4BP2L2 / RFU, ARFIP1 / Fold change vs veh, ARFIP1 / RFU, FAM179B / Fold change vs veh, FAM179B / RFU, BCL10 / Fold change vs veh, BCL10 / RFU, UHRF1BP1L / Fold change vs veh, UHRF1BP1L / RFU, BET1 / Fold change vs veh, BET1 / RFU, CNOT2 / Fold change vs veh, CNOT2 / RFU, ZNF268 / Fold change vs veh, ZNF268 / Fold change vs veh, ZNF507 / RFU, DGCR2 / Fold change vs veh, DGCR2 / RFU, WDSUB1 / Fold change vs veh, WDSUB1 / Fold change vs veh, HSP90B1 /// MIR3652 / RFU, ADSS / Fold change vs veh, ADSS / RFU, GK / Fold change vs veh, GK / RFU, ZNF148 / Fold change vs veh, ZNF148 / RFU, TAF9 / Fold change vs veh, TAF9 / RFU, SLC1A5 / Fold change vs veh, SLC1A5 / RFU, SLMO2 / Fold change vs veh, SLMO2 / RFU, ABCC4 / Fold change vs veh, ABCC4 / RFU, LOC101060439 /// RAP1B / Fold change vs veh, LOC101060439 /// RAP1B / RFU, RFX7 / Fold change vs veh, RFX7 / RFU, GTPBP10 / Fold change vs veh, GTPBP10 / RFU, CNEP1R1 / Fold change vs veh, CNEP1R1 / RFU, BIVM-ERCC5 /// ERCC5 / Fold change vs veh, BIVM-ERCC5 /// ERCC5 / RFU, ILF3 / Fold change vs veh, ILF3 / RFU 11762660_at / Fold change /veh 11762660_at / RFU VCAN (11757783_s_at) / Fold change /veh VCAN (11757783_s_at) / RFU DDX43 (11728927_at) / Fold change /veh DDX43 (11728927_at) / RFU KRT8 (11758188_x_at) / Fold change /veh KRT8 (11758188_x_at) / RFU NKD1 (11759106_at) / Fold change /veh NKD1 (11759106_at) / RFU SRD5A1 (11742802_a_at) / Fold change /veh SRD5A1 (11742802_a_at) / RFU TPSAB1 /// TPSB2 (11721975_s_at) / Fold change /veh TPSAB1 /// TPSB2 (11721975_s_at) / RFU GSTM3 (11746129_a_at) / Fold change /veh GSTM3 (11746129_a_at) / RFU IL23R (11737362_x_at) / Fold change /veh IL23R (11737362_x_at) / RFU TMEM51 (11727254_a_at) / Fold change /veh TMEM51 (11727254_a_at) / RFU PIWIL2 (11732686_x_at) / Fold change /veh PIWIL2 (11732686_x_at) / RFU ORM1 (11744905_x_at) / Fold change /veh ORM1 (11744905_x_at) / RFU CCDC152 (11743942_at) / Fold change /veh CCDC152 (11743942_at) / RFU ECM1 (11717891_a_at) / Fold change /veh ECM1 (11717891_a_at) / RFU IL23R (11748794_a_at) / Fold change /veh IL23R (11748794_a_at) / RFU TNFAIP8L3 (11732012_x_at) / Fold change /veh TNFAIP8L3 (11732012_x_at) / RFU MBOAT4 (11741988_at) / Fold change /veh MBOAT4 (11741988_at) / RFU 11764193_at / Fold change /veh 11764193_at / RFU TMEM53 (11763286_at) / Fold change /veh TMEM53 (11763286_at) / RFU MAGEB2 (11727129_at) / Fold change /veh MAGEB2 (11727129_at) / RFU TMEM200A (11744735_a_at) / Fold change /veh TMEM200A (11744735_a_at) / RFU CCDC152 (11751479_a_at) / Fold change /veh CCDC152 (11751479_a_at) / RFU FAM211A (11726209_a_at) / Fold change /veh FAM211A (11726209_a_at) / RFU RGS16 (11746705_a_at) / Fold change /veh RGS16 (11746705_a_at) / RFU VCAN (11755009_s_at) / Fold change /veh VCAN (11755009_s_at) / RFU RHOB (11743442_s_at) / Fold change /veh RHOB (11743442_s_at) / RFU RGS16 (11720943_a_at) / Fold change /veh RGS16 (11720943_a_at) / RFU RGS16 (11720944_at) / Fold change /veh RGS16 (11720944_at) / RFU, VPS4B / Fold change vs veh, VPS4B / RFU, CREB1 / Fold change vs veh, CREB1 / RFU, DNAJC13 / Fold change vs veh, DNAJC13 / RFU, GNAQ / Fold change vs veh, GNAQ / RFU, CDK5R1 / Fold change vs veh, CDK5R1 / RFU, ZRANB3 / Fold change vs veh, ZRANB3 / RFU, CUL4A / Fold change vs veh, CUL4A / RFU, CCNY / Fold change vs veh, CCNY / RFU, UFL1 / Fold change vs veh, UFL1 / RFU, COG3 / Fold change vs veh, COG3 / RFU, DIAPH2 / Fold change vs veh, DIAPH2 / RFU, SKA2 / Fold change vs veh, SKA2 / RFU, AFF3 / Fold change vs veh, AFF3 / RFU, LMF1 / Fold change vs veh, LMF1 / RFU, IPO11 / Fold change vs veh, IPO11 / RFU, DFFB / Fold change vs veh, DFFB / RFU, FOXP1 / Fold change vs veh, FOXP1 / RFU, CARD8 / Fold change vs veh, CARD8 / RFU, STRN3 / Fold change vs veh, STRN3 / RFU, ADK / Fold change vs veh, ADK / RFU, RASSF2 / Fold change vs veh, RASSF2 / RFU, WIPF1 / Fold change vs veh, WIPF1 / RFU, LARP1B / Fold change vs veh, LARP1B / RFU, RASA1 / Fold change vs veh, RASA1 / RFU, RB1 / Fold change vs veh, RB1 / RFU, PPFIA1 / Fold change vs veh, PPFIA1 / RFU, MAT2A / Fold change vs veh, MAT2A / RFU, CCT5 / Fold change vs veh, CCT5 / RFU, WDR92 / Fold change vs veh, WDR92 / RFU, CUX1 / Fold change vs veh, CUX1 / RFU, TTC7A / Fold change vs veh, TTC7A / RFU, TMEM135 / Fold change vs veh, TMEM135 / RFU, DEPTOR / Fold change vs veh, DEPTOR / RFU, CPM / Fold change vs veh, CPM / RFU, DNAJB6 / Fold change vs veh, DNAJB6 / RFU, CACNA2D3 / Fold change vs veh, CACNA2D3 / RFU, DTX4 / Fold change vs veh, DTX4 / RFU, TFCP2 / Fold change vs veh, TFCP2 / RFU, GMCL1 /// GMCL1P1 / Fold change vs veh, GMCL1 /// GMCL1P1 / RFU, AEBP2 / Fold change vs veh, AEBP2 / RFU, SNHG1 /// SNORD22 /// SNORD25 /// SNORD26 /// SNORD27 /// SNORD28 /// SNORD29 /// SNORD31 / Fold change vs veh, SNHG1 /// SNORD22 /// SNORD25 /// SNORD26 /// SNORD27 /// SNORD28 /// SNORD29 /// SNORD31 / Fold change (Aza/veh), C12orf56 (ProbeSet 11735607_a_at) / Fold change (ACY-1035/veh), C12orf56 (ProbeSet 11735607_a_at) / Fold change (Aza/veh), FGFR1OP (ProbeSet 11751329_s_at) / Fold change (ACY-1035/veh), FGFR1OP (ProbeSet 11751329_s_at) / Fold change (Aza/veh), VPS36 (ProbeSet 11739960_a_at) / Fold change (ACY-1035/veh), VPS36 (ProbeSet 11739960_a_at) / RFU SYPL1 (11715823_x_at) / Fold change /veh SYPL1 (11715823_x_at) / RFU IGFBP7 (11715501_s_at) / Fold change /veh IGFBP7 (11715501_s_at) / RFU REEP3 (11722064_at) / Fold change /veh REEP3 (11722064_at) / RFU IGLL1 (11728026_x_at) / Fold change /veh IGLL1 (11728026_x_at): dose or concentration left out as unconfirmed. Conditions: MV-4-11 cells, 48 hours. The format is cell-based, human.

Turning to `Nc1ccc(-c2cccs2)cc1NC(=O)c1ccc2c(c1)cc(C1CC1)n2CCN1CCOCC1` [ACY-1035], the “RFU BIN1 (11741810_x_at)” value was 33.72 RFU.

For the origin of these results see article PMC5218480 (PLoS ONE, 2017).
